Columns and labels:
[1] = tested on: morningglory; assay: Test B pre/postemergence morningglory; format: in vivo, Ipomoea hederacea
Method in brief: (§1)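 Herbicidal effect was estimated by eye on a ten-point control scale after plants spent twelve to sixteen days in a greenhouse following soil or foliar treatment. Foliar sprays targeted plants at one to four leaves; all doses were formulated in a non-phytotoxic solvent with surfactant.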

[2] = tested on: giant foxtail; assay: Test B pre/postemergence giant foxtail; format: in vivo, Setaria faberii
Method in brief: as §1

[3] = tested on: velvetleaf; assay: Test B pre/postemergence velvetleaf; format: in vivo, Abutilon theophrasti
Method in brief: as §1

[4] = tested on: purple nutsedge; assay: Test B pre/postemergence purple nutsedge; format: in vivo, Cyperus rotundus
Method in brief: as §1

[5] = tested on: soybean; assay: Test B pre/postemergence soybean; format: in vivo, Glycine max
Method in brief: as §1

[6] = tested on: crabgrass; assay: Test B pre/postemergence crabgrass; format: in vivo, Digitaria sanguinalis
Method in brief: as §1

[7] = tested on: blackgrass; assay: Test B pre/postemergence blackgrass; format: in vivo, Alopecurus myosuroides
Method in brief: as §1

[8] = tested on: cocklebur; assay: Test B pre/postemergence cocklebur; format: in vivo, Xanthium strumarium
Method in brief: as §1

[9] = tested on: wild oat; assay: Test B pre/postemergence wild oat; format: in vivo, Avena fatua
Method in brief: as §1

[10] = tested on: surinam grass; assay: Test B pre/postemergence surinam grass; format: in vivo, Brachiaria decumbens
Method in brief: as §1

[11] = tested on: sugar beet; assay: Test B pre/postemergence sugar beet; format: in vivo, Beta vulgaris
Method in brief: as §1

[12] = tested on: corn; assay: Test B pre/postemergence corn; format: in vivo, Zea mays
Method in brief: as §1

[13] = tested on: pigweed; assay: Test B pre/postemergence pigweed; format: in vivo, Amaranthus retroflexus
Method in brief: as §1

[14] = tested on: rape; assay: Test B pre/postemergence rape; format: in vivo, Brassica napus
Method in brief: as §1

[15] = Postemergence, Rate 62 g/ha, scale 0 to 10, 0 is no effect, 10 is complete control
[16] = Postemergence, Rate 250 g/ha, scale 0 to 10, 0 no effect, 10 complete control
[17] = Preemergence, Rate 62 g/ha, scale 0 to 10, 0 is no effect, 10 is complete control
[18] = Preemergence, Rate 125 g/ha, scale 0 to 10 (0 no effect, 10 complete control)
[19] = Preemergence, Rate 250 g/ha, scale of 0 to 10 where 0 is no effect and 10 is complete control
[20] = Preemergence, Rate 500 g/ha, scale 0 (no effect) to 10 (complete control)
[21] = Rate 125 g/ha, Postemergence, scale 0 to 10, 0 no effect, 10 complete control
[22] = Rate 500 g/ha, Postemergence, 0 to 10 scale (0 no effect, 10 complete control)

`Cc1ccc(N(C(=O)n2oc(=O)n(-c3ccccc3C)c2=O)C(C)C)cc1` [Compound 40] was tested, and the “Morningglory plant response rating” value [1, 15] was 3, the “Morningglory plant response rating” value [1, 16] was 6 and the “Plant response rating, Morningglory” value [1, 17] was 0. For the same molecule, the “Plant response rating, Morningglory” value [1, 18] was 0, the “Plant response rating, Morningglory” value [1, 19] was 0 and the “Morningglory plant response rating” value [1, 20] was 0. The “Morningglory plant response rating” value [1, 21] was 6, the “Morningglory plant response rating” value [1, 22] was 7 and the “Giant foxtail plant response rating” value [2, 15] was 0. For the same molecule, the “Giant foxtail plant response rating” value [2, 16] was 1, the “Plant response rating, Giant foxtail” value [2, 17] was 9 and the “Plant response rating, Giant foxtail” value [2, 18] was 9. The “Plant response rating, Giant foxtail” value [2, 19] was 10, the “Giant foxtail plant response rating” value [2, 20] was 10 and the “Giant foxtail plant response rating” value [2, 21] was 0. The “Giant foxtail plant response rating” value [2, 22] was 3, the “Velvetleaf plant response rating” value [3, 15] was 0 and the “Velvetleaf plant response rating” value [3, 16] was 0. The “Plant response rating, Velvetleaf” value [3, 17] was 0, the “Plant response rating, Velvetleaf” value [3, 18] was 0 and the “Plant response rating, Velvetleaf” value [3, 19] was 0. The “Velvetleaf plant response rating” value [3, 20] was 0, the “Velvetleaf plant response rating” value [3, 21] was 0 and the “Nutsedge plant response rating” value [4, 15] was 0. For the same molecule, the “Nutsedge plant response rating” value [4, 16] was 0, the “Plant response rating, Nutsedge” value [4, 17] was 0 and the “Plant response rating, Nutsedge” value [4, 18] was 0. For the same molecule, the “Plant response rating, Nutsedge” value [4, 19] was 0, the “Nutsedge plant response rating” value [4, 20] was 0 and the “Nutsedge plant response rating” value [4, 21] was 0. For the same molecule, the “Nutsedge plant response rating” value [4, 22] was 0, the “Soybean plant response rating” value [5, 15] was 3 and the “Soybean plant response rating” value [5, 16] was 4. For the same molecule, the “Plant response rating, Soybean” value [5, 17] was 0, the “Plant response rating, Soybean” value [5, 18] was 0 and the “Plant response rating, Soybean” value [5, 19] was 0. The “Soybean plant response rating” value [5, 20] was 0, the “Soybean plant response rating” value [5, 21] was 3 and the “Crabgrass plant response rating” value [6, 15] was 0. For the same molecule, the “Crabgrass plant response rating” value [6, 16] was 6, the “Plant response rating, Crabgrass” value [6, 17] was 2 and the “Plant response rating, Crabgrass” value [6, 18] was 4. The “Plant response rating, Crabgrass” value [6, 19] was 7, the “Crabgrass plant response rating” value [6, 20] was 10 and the “Crabgrass plant response rating” value [6, 21] was 1. For the same molecule, the “Crabgrass plant response rating” value [6, 22] was 7, the “Blackgrass plant response rating” value [7, 15] was 0 and the “Blackgrass plant response rating” value [7, 16] was 4. For the same molecule, the “Plant response rating, Blackgrass” value [7, 17] was 0, the “Plant response rating, Blackgrass” value [7, 18] was 0 and the “Plant response rating, Blackgrass” value [7, 19] was 1. The “Blackgrass plant response rating” value [7, 20] was 6, the “Blackgrass plant response rating” value [7, 21] was 0 and the “Blackgrass plant response rating” value [7, 22] was 7. For the same molecule, the “Cocklebur plant response rating” value [8, 15] was 0, the “Cocklebur plant response rating” value [8, 16] was 0 and the “Plant response rating, Cocklebur” value [8, 17] was 0. For the same molecule, the “Plant response rating, Cocklebur” value [8, 18] was 0, the “Plant response rating, Cocklebur” value [8, 19] was 0 and the “Cocklebur plant response rating” value [8, 20] was 0. For the same molecule, the “Cocklebur plant response rating” value [8, 21] was 0, the “Cocklebur plant response rating” value [8, 22] was 0 and the “Wild oats plant response rating” value [9, 15] was 0. The “Wild oats plant response rating” value [9, 16] was 0, the “Plant response rating, Wild oats” value [9, 18] was 0 and the “Plant response rating, Wild oats” value [9, 19] was 0. For the same molecule, the “Wild oats plant response rating” value [9, 20] was 5, the “Wild oats plant response rating” value [9, 21] was 0 and the “B. signalgrass plant response rating” value [10, 15] was 0. The “B. signalgrass plant response rating” value [10, 16] was 0, the “Plant response rating, B. signalgrass” value [10, 17] was 0 and the “Plant response rating, B. signalgrass” value [10, 18] was 0. For the same molecule, the “Plant response rating, B. signalgrass” value [10, 19] was 5, the “B. signalgrass plant response rating” value [10, 20] was 7 and the “B. signalgrass plant response rating” value [10, 21] was 0. The “B. signalgrass plant response rating” value [10, 22] was 0, the “Sugarbeets plant response rating” value [11, 15] was 0 and the “Sugarbeets plant response rating” value [11, 16] was 2. For the same molecule, the “Plant response rating, Sugarbeets” value [11, 17] was 0, the “Plant response rating, Sugarbeets” value [11, 18] was 0 and the “Plant response rating, Sugarbeets” value [11, 19] was 0. For the same molecule, the “Sugarbeets plant response rating” value [11, 20] was 6, the “Sugarbeets plant response rating” value [11, 21] was 0 and the “Corn plant response rating” value [12, 15] was 0. The “Corn plant response rating” value [12, 16] was 0, the “Plant response rating, Corn” value [12, 17] was 0 and the “Plant response rating, Corn” value [12, 18] was 0. For the same molecule, the “Plant response rating, Corn” value [12, 19] was 0, the “Corn plant response rating” value [12, 20] was 0 and the “Corn plant response rating” value [12, 21] was 0. The “Corn plant response rating” value [12, 22] was 0, the “Redroot pigweed plant response rating” value [13, 15] was 0 and the “Redroot pigweed plant response rating” value [13, 16] was 2. For the same molecule, the “Plant response rating, Redroot pigweed” value [13, 17] was 0, the “Plant response rating, Redroot pigweed” value [13, 18] was 1 and the “Plant response rating, Redroot pigweed” value [13, 19] was 4. The “Redroot pigweed plant response rating” value [13, 20] was 6, the “Redroot pigweed plant response rating” value [13, 21] was 1 and the “Rape plant response rating” value [14, 15] was 0. For the same molecule, the “Rape plant response rating” value [14, 16] was 0, the “Plant response rating, Rape” value [14, 17] was 0 and the “Plant response rating, Rape” value [14, 18] was 0. For the same molecule, the “Plant response rating, Rape” value [14, 19] was 0, the “Rape plant response rating” value [14, 20] was 0 and the “Rape plant response rating” value [14, 21] was 0. The “Rape plant response rating” value [14, 22] was 0.

Source: US6737383B1, “Herbicidal oxadiazolidines” (priority 1999, dated 2004)
